Assays:
barley = test: Test B preemergence/postemergence greenhouse plant response rating 0 to 10; type: in vivo, Hordeum vulgare; details: for Plant response rating, Barley: 0 to 10 scale
How it was run: (§1)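 Planted seeds are treated preemergence with compound dissolved in a non-phytotoxic solvent, while postemergence applications go onto plants of two to eighteen cm. Plants stay in the greenhouse twelve to sixteen days and are then rated visually relative to controls.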

bedstraw = test: as above; type: in vivo, Galium aparine; details: for Plant response rating, Bedstraw: 0 to 10 scale
How it was run: as §1

blackgrass = test: as above; type: in vivo, Alopecurus myosuroides; details: for Plant response rating, Blackgrass: POSTEMERGENCE, 0 to 10 scale
How it was run: as §1

cotton = test: as above; type: in vivo, Gossypium hirsutum; details: for Plant response rating, Cotton: 0 to 10 scale
How it was run: as §1

lambsquarters = test: as above; type: in vivo, Chenopodium album; details: for Plant response rating, Lambsquarter: 0 to 10 scale
How it was run: as §1

sorghum [1] = test: as above; type: in vivo, Sorghum bicolor; details: for Plant response rating, Sorghum: 0 to 10 scale
How it was run: as §1

sugar beet = test: as above; type: in vivo, Beta vulgaris; details: for Plant response rating, Sugar beet: 0 to 10 scale
How it was run: as §1

wheat [2] = test: as above; type: in vivo, Triticum aestivum; details: for Plant response rating, Wheat: 0 to 10 scale
How it was run: as §1

wild oat [3] = test: as above; type: in vivo, Avena fatua; details: for Plant response rating, Wild oat: 0 to 10 scale
How it was run: as §1

crabgrass = test: Test C preemergence/postemergence greenhouse plant response rating 0 to 100; type: in vivo, Digitaria sanguinalis; details: for Plant response rating, Crabgrass: 0 to 100 scale
How it was run: (§2)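 Compounds in non-phytotoxic solvent went onto sandy loam before emergence (seeded one day earlier) or onto plants at the one-to-four leaf stage. Duck salad was treated via flood water (~2.5 cm, maintained) over silt loam.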

downy brome = test: as above; type: in vivo, Bromus tectorum; details: for Plant response rating Downy Brome: 0 to 100 scale
How it was run: as §2

rape = test: as above; type: in vivo, Brassica napus; details: for Plant response rating, Rape: 0 to 100 scale
How it was run: as §2

ryegrass = test: as above; type: in vivo, Lolium multiflorum; details: for Plant response rating Ryegrass: 0 to 100 scale
How it was run: as §2

sorghum [4] = test: as above; type: in vivo, Sorghum bicolor; details: for Plant response rating, Sorghum: 0 to 100 scale
How it was run: as §2

wheat [5] = test: as above; type: in vivo, Triticum aestivum; details: for Plant response rating, Wheat: 0 to 100 scale
How it was run: as §2

wild buckwheat = test: as above; type: in vivo, Polygonum convolvulus; details: for Plant response rating, Wild buckwheat: 0 to 100 scale
How it was run: as §2

wild oat [6] = test: as above; type: in vivo, Avena fatua; details: for Plant response rating, Wild oat: 0 to 100 scale
How it was run: as §2

barnyardgrass = test: Test C flood test plant response rating 0 to 100; type: in vivo, Echinochloa crus-galli; details: for Plant response rating Barnyardgrass 2: flood test species listed under POSTEMERGENCE, 0 to 100 scale
How it was run: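 Compounds in non-phytotoxic solvent applied preemergence to sandy loam one day after planting, postemergence at the 1–4 leaf stage, or to ~2.5 cm floodwater over silt loam.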

C#CC(C)Oc1cc(-c2nn3c(c2Br)CCCC3)c(F)cc1Cl (stereo not drawn) [Compound 66]
Plant response rating, Barley (barley; POSTEMERGENCE, Rate 50 g/ha): 5
Plant response rating, Barley (barley; PREEMERGENCE, Rate 50 g/ha): 0
Plant response rating (0 to 10 scale), Barley (barley; PREEMERGENCE, Rate 200 g/ha): 2
Plant response rating, Barley (barley; Rate 200 g/ha, POSTEMERGENCE): 6
Plant response rating, Bedstraw (bedstraw; POSTEMERGENCE, Rate 50 g/ha): 10
Plant response rating, Bedstraw (bedstraw; PREEMERGENCE, Rate 50 g/ha): 9
Plant response rating (0 to 10 scale), Bedstraw (bedstraw; PREEMERGENCE, Rate 200 g/ha): 10
Plant response rating, Bedstraw (bedstraw; Rate 200 g/ha, POSTEMERGENCE): 10
Plant response rating, Blackgrass (blackgrass; Rate 50 g/ha): 4
Plant response rating (0 to 10 scale), Blackgrass (blackgrass; PREEMERGENCE, Rate 200 g/ha): 7
Plant response rating, Blackgrass (blackgrass; Rate 200 g/ha): 6
Plant response rating, Cotton (cotton; POSTEMERGENCE, Rate 50 g/ha): 10
Plant response rating, Cotton (cotton; PREEMERGENCE, Rate 50 g/ha): 0
Plant response rating (0 to 10 scale), Cotton (cotton; PREEMERGENCE, Rate 200 g/ha): 0
Plant response rating, Cotton (cotton; Rate 200 g/ha, POSTEMERGENCE): 10
Plant response rating, Lambsquarter (lambsquarters; POSTEMERGENCE, Rate 50 g/ha): 10
Plant response rating, Lambsquarter (lambsquarters; PREEMERGENCE, Rate 50 g/ha): 9
Plant response rating (0 to 10 scale), Lambsquarter (lambsquarters; PREEMERGENCE, Rate 200 g/ha): 10
Plant response rating, Lambsquarter (lambsquarters; Rate 200 g/ha, POSTEMERGENCE): 10
Plant response rating, Sorghum (sorghum [1]; POSTEMERGENCE, Rate 50 g/ha): 5
Plant response rating, Sorghum (sorghum [1]; PREEMERGENCE, Rate 50 g/ha): 0
Plant response rating (0 to 10 scale), Sorghum (sorghum [1]; PREEMERGENCE, Rate 200 g/ha): 0
Plant response rating, Sorghum (sorghum [1]; Rate 200 g/ha, POSTEMERGENCE): 7
Plant response rating, Sugar beet (sugar beet; POSTEMERGENCE, Rate 50 g/ha): 10
Plant response rating, Sugar beet (sugar beet; PREEMERGENCE, Rate 50 g/ha): 8
Plant response rating (0 to 10 scale), Sugar beet (sugar beet; PREEMERGENCE, Rate 200 g/ha): 10
Plant response rating, Sugar beet (sugar beet; Rate 200 g/ha, POSTEMERGENCE): 10
Plant response rating, Wheat (wheat [2]; POSTEMERGENCE, Rate 50 g/ha): 5
Plant response rating, Wheat (wheat [2]; PREEMERGENCE, Rate 50 g/ha): 0
Plant response rating (0 to 10 scale), Wheat (wheat [2]; PREEMERGENCE, Rate 200 g/ha): 3
Plant response rating, Wheat (wheat [2]; Rate 200 g/ha, POSTEMERGENCE): 5
Plant response rating, Wild oat (wild oat [3]; POSTEMERGENCE, Rate 50 g/ha): 5
Plant response rating, Wild oat (wild oat [3]; PREEMERGENCE, Rate 50 g/ha): 2
Plant response rating (0 to 10 scale), Wild oat (wild oat [3]; PREEMERGENCE, Rate 200 g/ha): 5
Plant response rating, Wild oat (wild oat [3]; Rate 200 g/ha, POSTEMERGENCE): 6
Plant response rating, Crabgrass (crabgrass; POSTEMERGENCE, 62 g/ha): 40
Plant response rating, Crabgrass (crabgrass; POSTEMERGENCE, 250 g/ha): 50
Plant response rating (0 to 100), Crabgrass (crabgrass; POSTEMERGENCE, Rate 4 g/ha): 10
Plant response rating, Crabgrass (crabgrass; PREEMERGENCE, 62 g/ha): 50
Plant response rating, Crabgrass (crabgrass; PREEMERGENCE, 250 g/ha): 100
Plant response rating (0 to 100), Crabgrass (crabgrass; PREEMERGENCE, Rate 4 g/ha): 0
Plant response rating (0 to 100), Crabgrass (crabgrass; Rate 16 g/ha, POSTEMERGENCE): 20
Plant response rating (0 to 100), Crabgrass (crabgrass; Rate 16 g/ha, PREEMERGENCE): 0
Plant response rating Downy Brome (downy brome; POSTEMERGENCE, 62 g/ha): 60
Plant response rating Downy Brome (downy brome; POSTEMERGENCE, 250 g/ha): 80
Plant response rating (0 to 100), Downy Brome (downy brome; POSTEMERGENCE, Rate 4 g/ha): 20
Plant response rating Downy Brome (downy brome; PREEMERGENCE, 62 g/ha): 30
Plant response rating Downy Brome (downy brome; PREEMERGENCE, 250 g/ha): 70
Plant response rating (0 to 100), Downy Brome (downy brome; PREEMERGENCE, Rate 4 g/ha): 0
Plant response rating (0 to 100), Downy Brome (downy brome; Rate 16 g/ha, POSTEMERGENCE): 40
Plant response rating (0 to 100), Downy Brome (downy brome; Rate 16 g/ha, PREEMERGENCE): 0
Plant response rating, Rape (rape; POSTEMERGENCE, 62 g/ha): 100
Plant response rating, Rape (rape; POSTEMERGENCE, 250 g/ha): 100
Plant response rating (0 to 100), Rape (rape; POSTEMERGENCE, Rate 4 g/ha): 40
Plant response rating, Rape (rape; PREEMERGENCE, 62 g/ha): 20
Plant response rating, Rape (rape; PREEMERGENCE, 250 g/ha): 30
Plant response rating (0 to 100), Rape (rape; PREEMERGENCE, Rate 4 g/ha): 0
Plant response rating (0 to 100), Rape (rape; Rate 16 g/ha, POSTEMERGENCE): 60
Plant response rating (0 to 100), Rape (rape; Rate 16 g/ha, PREEMERGENCE): 0
Plant response rating Ryegrass (ryegrass; POSTEMERGENCE, 62 g/ha): 50
Plant response rating Ryegrass (ryegrass; POSTEMERGENCE, 250 g/ha): 75
Plant response rating (0 to 100), Ryegrass (ryegrass; POSTEMERGENCE, Rate 4 g/ha): 10
Plant response rating Ryegrass (ryegrass; PREEMERGENCE, 62 g/ha): 50
Plant response rating Ryegrass (ryegrass; PREEMERGENCE, 250 g/ha): 70
Plant response rating (0 to 100), Ryegrass (ryegrass; PREEMERGENCE, Rate 4 g/ha): 0
Plant response rating (0 to 100), Ryegrass (ryegrass; Rate 16 g/ha, POSTEMERGENCE): 30
Plant response rating (0 to 100), Ryegrass (ryegrass; Rate 16 g/ha, PREEMERGENCE): 20
Plant response rating, Sorghum (sorghum [4]; POSTEMERGENCE, 62 g/ha): 50
Plant response rating, Sorghum (sorghum [4]; POSTEMERGENCE, 250 g/ha): 60
Plant response rating (0 to 100), Sorghum (sorghum [4]; POSTEMERGENCE, Rate 4 g/ha): 30
Plant response rating, Sorghum (sorghum [4]; PREEMERGENCE, 250 g/ha): 30
Plant response rating (0 to 100), Sorghum (sorghum [4]; PREEMERGENCE, Rate 4 g/ha): 0
Plant response rating (0 to 100), Sorghum (sorghum [4]; Rate 16 g/ha, POSTEMERGENCE): 40
Plant response rating (0 to 100), Sorghum (sorghum [4]; Rate 16 g/ha, PREEMERGENCE): 0
Plant response rating, Wheat (wheat [5]; POSTEMERGENCE, 62 g/ha): 60
Plant response rating, Wheat (wheat [5]; POSTEMERGENCE, 250 g/ha): 70
Plant response rating (0 to 100), Wheat (wheat [5]; POSTEMERGENCE, Rate 4 g/ha): 20
Plant response rating, Wheat (wheat [5]; PREEMERGENCE, 250 g/ha): 70
Plant response rating (0 to 100), Wheat (wheat [5]; PREEMERGENCE, Rate 4 g/ha): 0
Plant response rating (0 to 100), Wheat (wheat [5]; Rate 16 g/ha, POSTEMERGENCE): 40
Plant response rating (0 to 100), Wheat (wheat [5]; Rate 16 g/ha, PREEMERGENCE): 0
Plant response rating, Wild buckwheat (wild buckwheat; POSTEMERGENCE, 62 g/ha): 100
Plant response rating, Wild buckwheat (wild buckwheat; POSTEMERGENCE, 250 g/ha): 100
Plant response rating (0 to 100), Wild buckwheat (wild buckwheat; POSTEMERGENCE, Rate 4 g/ha): 100
Plant response rating, Wild buckwheat (wild buckwheat; PREEMERGENCE, 250 g/ha): 100
Plant response rating (0 to 100), Wild buckwheat (wild buckwheat; PREEMERGENCE, Rate 4 g/ha): 0
Plant response rating (0 to 100), Wild buckwheat (wild buckwheat; Rate 16 g/ha, POSTEMERGENCE): 100
Plant response rating (0 to 100), Wild buckwheat (wild buckwheat; Rate 16 g/ha, PREEMERGENCE): 75
Plant response rating, Wild oat (wild oat [6]; POSTEMERGENCE, 62 g/ha): 50
Plant response rating, Wild oat (wild oat [6]; POSTEMERGENCE, 250 g/ha): 60
Plant response rating (0 to 100), Wild oat (wild oat [6]; POSTEMERGENCE, Rate 4 g/ha): 10
Plant response rating, Wild oat (wild oat [6]; PREEMERGENCE, 250 g/ha): 30
Plant response rating (0 to 100), Wild oat (wild oat [6]; PREEMERGENCE, Rate 4 g/ha): 0
Plant response rating (0 to 100), Wild oat (wild oat [6]; Rate 16 g/ha, POSTEMERGENCE): 20
Plant response rating (0 to 100), Wild oat (wild oat [6]; Rate 16 g/ha, PREEMERGENCE): 0
Plant response rating (0 to 100), Barnyardgrass 2 (barnyardgrass; POSTEMERGENCE section, flood test, Rate 4 g/ha): 10
Plant response rating (0 to 100), Barnyardgrass 2 (barnyardgrass; Rate 16 g/ha, under POSTEMERGENCE head (flood test species)): 90
Plant response rating Barnyardgrass 2 (barnyardgrass; 62 g/ha): 100
Plant response rating Barnyardgrass 2 (barnyardgrass; 250 g/ha): 100

Source: US6358885B1, “Substituted phenylheterocyclic herbicides” (Mississippi State University, priority 1992, dated 2002)
